We go through 14 compounds from ChEMBL document CHEMBL5335803, “Potential of several triazene derivatives against DENGUE viruses” (Bioorg Med Chem Lett, 2024).

Structures are written as SMILES. A value given as a limit tells only on which side of the number the result lay.

The first series relates to Dengue virus. In words: Antiviral activity against DENV infected in human Huh-7 cells assessed as reduction in viral growth incubated for 72 hrs by flow cytometry. The note with it: Huh-7, 72 h. It counts as functional, organism-based.
On to `Brc1cccc(/N=N/Nc2ccccn2)c1`, for which the EC50 came out at 8.45 µM.
The same measure, in the same setting: with `COc1ccc(/N=N/Nc2ccncc2)cc1` the figure was 48.1 µM; with `CCN(CC)/N=N/c1ccc(OC)cc1`, more than 50 µM.
As to `COc1ccc(/N=N/n2ccnc2)cc1`, the EC50 was determined as 32.4 µM.
For the compound `FC(F)(F)c1ccc(/N=N/n2ccnc2)cc1`, the half-maximal effective concentration (EC50) turned out to be 7.82 µM.
As to `c1ccc(/N=N/Nc2ccccn2)cc1`, the EC50 is 10.6 µM.
For `CN(/N=N/c1cccnc1)c1ccccc1`, the EC50 turned out to be 11.7 µM.
Same read-out and setting: to `c1cncc(/N=N/N2CCCc3ccccc32)c1` belongs 7.92 µM.
Same read-out and setting: with `COc1ccc(/N=N/Nc2ncccc2C)cc1` the figure was 11.5 µM.
For `Brc1ccc(/N=N/Nc2ccccn2)cc1`, the EC50 turned out to be 8.08 µM.
Consider `COc1ccc(/N=N/Nc2ccccn2)cc1`, for which the EC50 was less than 1.56 µM.
Take `O[C@H]1[C@H]2c3cc4c(cc3CN3CCC(=C[C@@H]1O)[C@H]23)OCO4` [LYCORINE]: the EC50 came to 1.7 µM.
Regarding `NC(=O)c1ncn([C@@H]2O[C@H](CO)[C@@H](O)[C@H]2O)n1` [RIBAVIRIN], the EC50 turned out to be 40.8 µM.

Tested on in another series: not listed separately
In words: Cytotoxicity against human Huh-7 cells infected with DENV assessed as reduction in cell viability by microplate spectrophotometry. It counts as toxicity, cell-based.
Conditions: not given
Consider `Brc1cccc(/N=N/Nc2ccccn2)c1`, for which the CC50 stood at 27.4 µM.
On the same count and under the same terms, to `FC(F)(F)c1ccc(/N=N/Nc2ccncc2)cc1` belongs 11.9 µM; to `COc1ccc(/N=N/Nc2ccncc2)cc1`, 28.5 µM.
The same measure, in the same setting: to `CCN(CC)/N=N/c1ccc(OC)cc1` belongs 24.4 µM.
On to `COc1ccc(/N=N/n2ccnc2)cc1`, for which the CC50 turned out to be 72 µM.
In the case of `FC(F)(F)c1ccc(/N=N/n2ccnc2)cc1`, the CC50 was more than 100 µM.
Same read-out and setting: with `c1ccc(/N=N/Nc2ccccn2)cc1` the figure was 22.1 µM.
Consider `CN(/N=N/c1cccnc1)c1ccccc1`, for which the CC50 is 20.6 µM.
`c1cncc(/N=N/N2CCCc3ccccc32)c1`: the CC50 amounted to 7.09 µM.
On the same count and under the same terms, to `COc1ccc(/N=N/Nc2ncccc2C)cc1` belongs more than 100 µM; to `Brc1ccc(/N=N/Nc2ccccn2)cc1`, 75.6 µM; to `COc1ccc(/N=N/Nc2ccccn2)cc1`, 15.5 µM.

Tested on in a further series: not listed separately
Description: Selectivity index, ratio of CC50 for human Huh-7 cells to EC50 for DENV infected in Huh-7 cells. It counts as toxicity, cell-based. The note with it: read-out: Selectivity Index.
Regarding `COc1ccc(/N=N/n2ccnc2)cc1`, the selectivity ratio was found to be 2.22.
Still for that read-out and setting: with `FC(F)(F)c1ccc(/N=N/n2ccnc2)cc1` the figure was more than 12.8; with `Brc1ccc(/N=N/Nc2ccccn2)cc1`, 9.36.

In another series the test system is Dengue virus. In words: Antiviral activity against DENV infected in human Huh-7 cells assessed as percent of infected cells at 50 uM incubated for 72 hrs by flow cytometry relative to control.
Conditions: not given
It counts as functional.
As to `Brc1cccc(/N=N/Nc2ccccn2)c1`, the Activity entry is given as “<=20%”.
The same measure, in the same setting: to `COc1ccc(/N=N/Nc2ccncc2)cc1` belongs 22%.
For `CCN(CC)/N=N/c1ccc(OC)cc1`, the Activity was determined as 22%.
As to `COc1ccc(/N=N/n2ccnc2)cc1`, the Activity was determined as 22%.
As for `FC(F)(F)c1ccc(/N=N/n2ccnc2)cc1`, the Activity entry is listed as “<=20%”.
Turning to `c1ccc(/N=N/Nc2ccccn2)cc1`, the Activity entry is recorded as “<=20%”.
`c1cncc(/N=N/N2CCCc3ccccc32)c1`: the Activity stood at 22%.
Take `COc1ccc(/N=N/Nc2ncccc2C)cc1`: the Activity was 22%.
Consider `Brc1ccc(/N=N/Nc2ccccn2)cc1`, for which the Activity entry is on record as “<=20%”.
For `COc1ccc(/N=N/Nc2ccccn2)cc1`, the Activity result was “<=20%”.

A further series concerns Dengue virus. Description: Antiviral activity against DENV infected in human Huh-7 cells assessed as percent of infected cells at 12.5 uM incubated for 72 hrs by flow cytometry relative to control. It counts as functional.
Conditions: not given
For `FC(F)(F)c1ccc(/N=N/n2ccnc2)cc1`, the Activity is reported as 0%.
